Consider one molecule from patent US6951843B2, “Peptide derivatives and their pharmaceutically acceptable salts, thereof, processes for preparation of both and use thereof” (priority 2000, dated 2005).

Each structure is given as a SMILES string. Like-named read-outs stand apart in the source and are kept apart here.

For one assay, the system named is Arg-gingipain (RGP). Briefly: Inhibitory activity against Arg-gingipain (RGP), substrate Z-Phe-Arg-MCA, for comparison. The assay is classed as biochemical, Porphyromonas gingivalis. Particulars: compound concentration 10^−6 mol/l. As to the method: Enzyme inhibitory activity (%)=[1−(F/F0)]×100
The inhibitory activity against Arg-gingipain (hereinafter referred to as “RGP”) was measured for comparison in a manner similar to the above, by the process described in Journal Biological Chemistry, Vol. 269, 21371-21378 (1994) using Z-Phe-Arg-MCA as a substrate.

A further assay addresses Lys-gingipain (KGP) (Porphyromonas gingivalis, UniProt B2RLK2). As to the method:
Measurement of Inhibitory Activity Against KGP
The inhibitory activity against Lys-gingipain (KGP) was measured by the method described in Journal Biochemistry, Vol. 123, 305-312 (1998), using Z-His-Glu-Lys-MCA as a substrate. Specifically, the measurement was carried out in the following manner: 100 μl of 50 mM L-cystein, 200 μl of a 0.1 M sodium phosphate buffer solution (pH 7.5), 20 μl of 12.3 nM KGP solution containing 0.05% “Brij35” (a tradename of Aldrich, polyoxyethylene(23) lauryl ether), 80 μl of distilled water and 100 μl of a dimethyl sulfoxide solution of a compound according to the invention were mixed together, and preincubated at 37° C. for 5 minutes. Thereafter, 500 μl of a 0.1% dimethyl sulfoxide solution containing 20 μM Z-His-Glu-Lys-MCA was added, followed by incubation at 40° C. for 10 minutes. Then, an acetic acid buffer solution (pH 5.0) containing 10 mM iodoacetamide was added to stop the enzyme reaction, and the fluorescence intensity (F) at 460 nm excited at 380 nm was measured. […] The enzyme inhibitory activity (%) was calculated by the following equation. Enzyme inhibitory activity (%)=[1−(F/F0)]×100

For `Cl.NCCCC[C@H](NC(=O)[C@H](CCC(N)=O)NC(=O)OCc1ccccc1)C(=O)C(=O)NCc1ccccc1` [Example 43], in the assay with Arg-gingipain (RGP), the “Enzyme inhibitory activity (%) RGP” value is reported as 9.0%. Besides, the “Enzyme inhibitory activity (%) KGP” value at Lys-gingipain (KGP) (compound concentration 10^−6 mol/l) came out at 100.0%; at Lys-gingipain (KGP) (compound concentration 10^−9 mol/l) it was 93.8%.
